Here are results for twelve molecules from patent US20110275703A1, “SUBSTITUTED SPIROKETAL DERIVATIVES AND USE THEREOF AS THERAPEUTIC DRUG FOR DIABETES” (CHUGAI SEIYAKU KABUSHIKI KAISHA, priority 2007, published 2011).

SMILES strings stand for the structures. Where two headings read alike, the source gives them in different places.

For test [1], the target named is T1, human SGLT2 (Homo sapiens, UniProt P31639).
T1 construct: expressed in transfected cells; host or cells: CHO-K1
T1 sequence (P31639 1-672): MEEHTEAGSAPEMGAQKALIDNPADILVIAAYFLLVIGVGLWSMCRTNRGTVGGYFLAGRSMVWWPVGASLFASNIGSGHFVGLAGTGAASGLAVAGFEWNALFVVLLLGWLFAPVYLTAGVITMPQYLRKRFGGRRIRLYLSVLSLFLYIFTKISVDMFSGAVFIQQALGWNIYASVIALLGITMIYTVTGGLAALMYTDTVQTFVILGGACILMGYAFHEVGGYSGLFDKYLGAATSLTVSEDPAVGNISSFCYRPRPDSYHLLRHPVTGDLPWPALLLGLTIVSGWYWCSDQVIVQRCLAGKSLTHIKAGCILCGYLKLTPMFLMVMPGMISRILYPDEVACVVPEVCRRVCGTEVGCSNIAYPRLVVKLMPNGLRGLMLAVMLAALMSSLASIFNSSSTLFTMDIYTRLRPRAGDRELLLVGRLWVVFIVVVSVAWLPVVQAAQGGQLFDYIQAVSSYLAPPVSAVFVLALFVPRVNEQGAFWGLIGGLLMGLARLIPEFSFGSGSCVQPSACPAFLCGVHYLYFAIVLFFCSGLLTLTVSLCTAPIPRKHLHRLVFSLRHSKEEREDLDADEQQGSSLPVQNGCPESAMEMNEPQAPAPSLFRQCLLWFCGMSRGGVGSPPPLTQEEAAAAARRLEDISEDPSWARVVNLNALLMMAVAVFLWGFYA
Briefly: Inhibitory activity against methyl-α-D-glucopyranoside uptake, CHO cells stably expressing human SGLT2. It counts as cell-based. The conditions noted are these: inhibition of SGLT2, Table 2-1; read-out: IC50 value. An excerpt: Evaluation of inhibitory activity against methyl-α-D-glucopyranoside uptake of human Na^+-glucose cotransporter (SGLT1 and SGLT2)
2) Construction of Human SGLT2 Expression Vector
Human SGLT2 cDNA was amplified by PCR with a cDNA library derived from human kidney (Clontech) as a template, synthetic DNA primers and KOD+ DNA Polymerase. The amplified cDNA was inserted into pcRII-Topo vector by using a Topo TA Cloning Dual Promoter kit. E. coli competent cells (TPO10) were transformed with the plasmid vector, cultured in LB medium containing ampicillin (50 mg/L) to grow ampicillin-resistant clones. The plasmid vector containing human SGLT2 cDNA was purified from the clone in a standard manner. Human SGLT2 cDNA added restriction enzyme recognition sites (Xho I at 5′-end, Hind III at 3′-end) was amplified by PCR with the plasmid vector as a template, synthetic DNA primers containing an additional restriction enzyme recognition site and KOD+ DNA Polymerase. This amplified cDNA was digested with Xho I and Hind III, and ligated into expression vector pcDNA3.1(−) digested with Xho I and Hind III by using a Rapid DNA Ligation kit. E. coli competent cells (DH5α) were transformed with the ligated expression vector and grown in ampicillin-containing LB medium. Human SGLT2 expression vector was purified from the ampicillin-resistant clone in a standard manner.
3) Establishment of Cell Lines Stably Expressing Human SGLT1 or Human SGLT2
The human SGLT1 expression vector or the human SGLT2 expression vector was digested with the restriction enzyme Pvu I and transfected into CHO-Kl cells with FuGENE (Roche Diagonostics). After the transfection, the cells were cultured at 37° C. in the presence of 5% CO2 for about 3 weeks in DMEM medium (Gibco) containing penicillin (50 U/mL, SIGMA), streptomycin (50 mg/L, SIGMA), geneticin (200 mg/L, Nacalai Tesque, Inc., Japan) and 20% fetal bovine serum to obtain geneticin-resistant clones. Among these clones, clones stably expressing human SGLT1 or human SGLT2 were selected by the evaluating the sodium-dependent uptake activity of sugar (methyl-α-D-glucopyranoside).
4) Evaluation of Inhibitory Activity Against methyl-α-D-glucopyranoside uptake
Cell lines stably expressing human SGLT1 or human SGLT2 CHO were seeded in 96-well culture plates at a density of 30000 to 40000 cells/well and cultured for 4 to 6 days. The medium in these plates was removed and replaced by 150 μL/well pretreatment buffer (i.e., a buffer containing 140 mM choline chloride, 2 mM potassium chloride, 1 mM calcium chloride, 1 mM magnesium chloride, 10 mM 2-[4-(2-hydroxyethyl)-1-piperazinyl]ethanesulfonic acid and tris(hydroxymethyl)aminomethane, pH 7.4), and the plates were incubated at 37° C. for 20 minutes. The pretreatment buffer in the plates was removed, replaced by 50 μL/well fresh pretreatment buffer, and the plates were incubated at 37° C. for 20 minutes. Methyl-α-D-(U—^14C)glucopyranoside (6.3 mL, Amersham Pharmacia Biotech, 200 mCi/L) was added to and mixed with 100 mL buffer (i.e., a buffer containing 140 mM sodium chloride, 2 mM potassium chloride, 1 mM calcium chloride, 1 mM magnesium chloride, 1 mM methyl-α-D-glucopyranoside, 10 mM [4-(2-hydroxyethyl)-1-piperazinyl]ethanesulfonic acid and tris(hydroxymethyl)aminomethane, pH 7.4), which was used as uptake buffer. Test compounds were dissolved into uptake buffer and these test compound solutions were used for evaluating inhibitory activity. Uptake buffer without a test compound was used as a control solution. Moreover, for use in measuring baseline uptake in the absence of sodium, sodium-free solution was prepared in the same manner to contain 140 mM choline chloride instead of sodium chloride. The pretreatment buffer was removed from each well of the plates and replaced by 35 μL/well test compound solutions, control solution or sodium-free solution, and the plates were incubated at 37° C. for 45 minutes. […]

Test [2] deals with db/db mice. Put plainly: Study for glucose lowering effect in db/db mouse. It counts as in vivo. Conditions: Mus musculus, 6 hours. The protocol:
Study for Glucose Lowering Effect in dB/dB Mouse
A study for glucose lowering effect was conducted using db/db mice (purchased from Clea Japan, Inc., male, 9 to 11 weeks old), type 2 diabetic model mice. On the day of the study, body weights and blood glucose levels were measured prior to the start of testing. Measurement of the blood glucose levels was performed using a simple blood glucose meter (manufactured by Bayer HealthCare, Dexter-Z II). The mice were allocated to some groups consisting of 5 mice each so that homogeneity of body weights or blood glucose levels among groups would be ensured. Blood collection was carried out by making an incision on the tip of the tail and taking the blood therefrom. On the day of the study, the test compounds were suspended in 0.5% carboxymethylcellulose solution (CMC solution), and the dosing solutions of which concentration was adjusted to either 0.3 mg/10 mL or 3 mg/10 mL were prepared. The dosing solutions were orally administered by gavage for mice in 10 mL/kg. To the control group, only a 0.5% CMC solution was orally administered in 10 mL/kg. Blood was collected prior to or sequentially after administration of test compounds by above method. The blood glucose levels were determined using a hexokinase method (AutoSera S GLU, manufactured by Daiichi Pure Chemicals Co., Ltd.). A percent reduction of blood glucose relative to control group at each time point after administration of test compounds was calculated by the following equation.
Percent reduction of blood glucose (%)={blood glucose level in the control group (mg/dL)-blood glucose level in the test compound group (mg/dL)}/blood glucose level in the control group (mg/dL)×100

The mark [3] stands for this setting: po, 0.3 mg/kg administration, read-out: reduction of blood glucose 6 hours after administration.

For orientation: IC50 means the concentration needed to halve the response being measured. In the case of `CC(C)(C)c1ccc(Cc2cc3c(cc2Cl)CO[C@]32O[C@H](CO)[C@@H](O)[C@H](O)[C@H]2O)cc1` [Example 14, (1S,3′R,4′S,5′S,6′R)-6-[(4-tert-butylphenyl)methyl]-5-chloro-3′,4′,5′,6′-tetrahydro-6′-(hydroxymethyl)-spiro[isobenzofuran-1(3H),2′-[2H]pyran]-3′,4′,5′-triol], in test [1], the 50% inhibitory concentration (IC50) turned out to be 3.4 nM. Besides, the inhibition in vivo at 0.3 mg/kg in test [2] (setting [3]) was at least 25%.
Consider `CCc1ccc(Cc2cc3c(cc2F)CO[C@]32O[C@H](CO)[C@@H](O)[C@H](O)[C@H]2O)cc1` [Example 16, (1S,3′R,4′S,5′S,6′R)-6-[(4-ethylphenyl)methyl]-5-fluoro-3′,4′,5′,6′-tetrahydro-6′-(hydroxymethyl)-spiro[isobenzofuran-1(3H),2′-[2H]pyran]-3′,4′,5′-triol], for which the IC50 in test [1] stood at 1.5 nM. Besides, in test [2] (setting [3]), the inhibition in vivo at 0.3 mg/kg is at least 25%.
Consider `CCOc1ccc(Cc2cc3c(cc2F)CO[C@]32O[C@H](CO)[C@@H](O)[C@H](O)[C@H]2O)cc1` [Example 17, (1S,3′R,4′S,5′S,6′R)-6-[(4-ethoxyphenyl)methyl]-5-fluoro-3′,4′,5′,6′-tetrahydro-6′-(hydroxymethyl)-spiro[isobenzofuran-1(3H),2′-[2H]pyran]-3′,4′,5′-triol], for which the IC50 in test [1] turned out to be 2.6 nM. In test [2] (oral, 0.3 mg/kg, relative to control group, Table 3-1, read-out: Percent reduction of blood glucose (%) 6 hours after administration), the inhibition in vivo at 0.3 mg/kg came out at 33%.
Consider `Cc1ccc(Cc2cc3c(cc2F)CO[C@]32O[C@H](CO)[C@@H](O)[C@H](O)[C@H]2O)cc1` [Example 18, (1S,3′R,4′S,5′S,6′R)-5-fluoro-3′,4′,5′,6′-tetrahydro-6′-(hydroxymethyl)-6-[(4-methylphenyl)methyl]-spiro[isobenzofuran-1(3H),2′-[2H]pyran]-3′,4′,5′-triol], for which, in test [1], the IC50 was determined as 1.7 nM. Besides, the inhibition in vivo at 0.3 mg/kg in test [2] (setting [3]) was at least 25%.
`CC(C)c1ccc(Cc2cc3c(cc2F)CO[C@]32O[C@H](CO)[C@@H](O)[C@H](O)[C@H]2O)cc1` [Example 19, (1S,3′R,4′S,5′S,6′R)-5-fluoro-3′,4′,5′,6′-tetrahydro-6′-(hydroxymethyl)-6-[(4-isopropylphenyl)methyl]-spiro[isobenzofuran-1(3H),2′-[2H]pyran]-3′,4′,5′-triol]: the IC50 in test [1] was determined as 2 nM. In addition, the inhibition in vivo at 0.3 mg/kg in test [2] (setting [3]) is at least 25%.
In the case of `COc1ccc(Cc2cc3c(cc2F)CO[C@]32O[C@H](CO)[C@@H](O)[C@H](O)[C@H]2O)cc1` [Example 20, (1S,3′R,4′S,5′S,6′R)-5-fluoro-3′,4′,5′,6′-tetrahydro-6′-(hydroxymethyl)-6-[(4-methoxyphenyl)methyl]-spiro[isobenzofuran-1(3H),2′-[2H]pyran]-3′,4′,5′-triol], the 50% inhibitory concentration (IC50) in test [1] was 2.2 nM. In addition, in test [2] (setting [3]), the inhibition in vivo at 0.3 mg/kg is at least 25%.
`Cc1cc2c(cc1Cc1ccc(CCF)cc1)[C@]1(OC2)O[C@H](CO)[C@@H](O)[C@H](O)[C@H]1O` [Example 22, (1S,3′R,4′S,5′S,6′R)-6-[(4-(2-fluoroethyl)phenyl)methyl]-5-methyl-3′,4′,5′,6′-tetrahydro-6′-(hydroxymethyl)-spiro[isobenzofuran-1(3H),2′-[2H]pyran]-3′,4′,5′-triol]: the IC50 in test [1] was found to be 1.1 nM. Also, the inhibition in vivo at 0.3 mg/kg in test [2] (setting [3]) is at least 25%.
As to `COc1ccc(Cc2cc3c(cc2C)CO[C@]32O[C@H](CO)[C@@H](O)[C@H](O)[C@H]2O)cc1` [Example 23, (1S,3′R,4′S,5′S,6′R)-3′,4′,5′,6′-tetrahydro-6′-(hydroxymethyl)-6-[(4-methoxyphenyl)methyl]-5-methyl-spiro[isobenzofuran-1(3H),2′-[2H]pyran]-3′,4′,5′-triol], the half-maximal inhibitory concentration (IC50) in test [1] is 1.5 nM. Moreover, the inhibition in vivo at 0.3 mg/kg in test [2] (setting [3]) was at least 25%.
As to `CCOc1ccc(Cc2cc3c(cc2C)CO[C@]32O[C@H](CO)[C@@H](O)[C@H](O)[C@H]2O)cc1` [Example 24, (1S,3′R,4′S,5′S,6′R)-6-[(4-ethoxyphenyl)methyl]-3′,4′,5′,6′-tetrahydro-6′-(hydroxymethyl)-5-methyl-spiro[isobenzofuran-1(3H),2′-[2H]pyran]-3′,4′,5′-triol], in test [1], the 50% inhibitory concentration (IC50) was 1.8 nM. In test [2] (setting [3]), the inhibition in vivo at 0.3 mg/kg was at least 25%.
Turning to `CCCc1ccc(Cc2cc3c(cc2C)CO[C@]32O[C@H](CO)[C@@H](O)[C@H](O)[C@H]2O)cc1` [Example 25, (1S,3′R,4′S,5′S,6′R)-3′,4′,5′,6′-tetrahydro-6′-(hydroxymethyl)-5-methyl-6-[(4-propylphenyl)methyl]-spiro[isobenzofuran-1(3H),2′-[2H]pyran]-3′,4′,5′-triol], the IC50 in test [1] was found to be 2.3 nM. The inhibition in vivo at 0.3 mg/kg in test [2] (setting [3]) is at least 25%.
Regarding `Cc1cc2c(cc1Cc1ccc(C(F)(F)F)cc1)[C@]1(OC2)O[C@H](CO)[C@@H](O)[C@H](O)[C@H]1O` [Example 26, (1S,3′R,4′S,5′S,6′R)-6-[(4-trifluoromethylphenyl)methyl]-3′,4′,5′,6′-tetrahydro-6′-(hydroxymethyl)-5-methyl-spiro[isobenzofuran-1(3H),2′-[2H]pyran]-3′,4′,5′-triol], the 50% inhibitory concentration (IC50) in test [1] amounted to 2.8 nM. The inhibition in vivo at 0.3 mg/kg in test [2] (setting [3]) is at least 25%.
The corresponding values for `Cc1cc2c(cc1Cc1ccc(OC(F)(F)F)cc1)[C@]1(OC2)O[C@H](CO)[C@@H](O)[C@H](O)[C@H]1O` [Example 27, (1S,3′R,4′S,5′S,6′R)-6-[(4-trifluoromethoxyphenyl)methyl]-3′,4′,5′,6′-tetrahydro-6′-(hydroxymethyl)-5-methyl-spiro[isobenzofuran-1(3H),2′-[2H]pyran]-3′,4′,5′-triol] are 2.6 nM and at least 25%.
